Assay results from patent US9683934B2, “Terahertz spectroscopy for predicting stability of amorphous drugs” (Cambridge Enterprise Limited, priority 2013, dated 2017).

Columns and labels:
[1] = Terahertz time-domain spectroscopy (THz-TDS) dielectric losses of polyalcohols, linear fits ε″(T/Tg)=A+BT/Tg; format: physicochemical; conditions: for B3, linear coefficient of ε″(T/Tg)=A+BT/Tg in region (iii) / B1, linear coefficient of ε″(T/Tg)=A+BT/Tg in region (i) / B2, linear coefficient of ε″(T/Tg)=A+BT/Tg in region (ii): 1 THz, brackets = standard deviation at last decimal place; for B3, linear coefficient of ε″(T/Tg)=A+BT/Tg in region (iii): above Tg; for B1, linear coefficient of ε″(T/Tg)=A+BT/Tg in region (i): below about 0.6 Tg; for B2, linear coefficient of ε″(T/Tg)=A+BT/Tg in region (ii): between about 0.6 Tg and Tg; for Tα, crossover point of linear fits from region (ii) to region (iii) / Tβ, crossover point of linear fits from region (i) to region (ii) / Tβ/Tg: dielectric losses at 1 THz
Text: In these examples, systematic THz-TDS study allows direct access to the complex dielectric function for the frequency range of 0.1-3 THz, over a wide range of temperatures. For these experiments, the samples were melted (except glycerol, which is liquid at room temperature), loaded into a continuous-flow cryostat and cooled at a rate of approximately 25 K·min^−1 to 80 K, followed by subsequent heating by 10 K increments to 310 K. Spectra were acquired using a THz-TDS setup operating in transmission geometry. All four polyalcohols were purchased from Sigma-Aldrich with >99% purity. The samples were used without further purification. […] The solid lines represent linear fits to the data in regions (i) below a transition temperature of about 0.6 Tg, (ii) between the transition temperature and Tg, and (iii), above Tg. The dashed vertical lines highlight the temperatures 0.6Tg and Tg, respectively. Tβ and Tα represent the crossover points (changes in gradient) of the linear fits from region (i) to region (ii), and from region (ii) to region (iii), respectively. […] The temperature dependence of ∈″(v) at v=1 THz is shown in FIG. 6 for all four polyalcohol materials. Here, we use the rescaled temperature T/Tg on the abscissa to compare the common features of the glassy state between the different polyalcohols. Three absorption regimes can be resolved in all samples: (i) temperature-independent losses; ii) a weak temperature dependence of losses below Tg; and iii) a strong temperature dependence of losses above Tg, as proposed previously. More detailed information was extracted by fitting the data points with an empirical linear fit, viz. ∈″(T/Tg)=A+BT/Tg, in each of the respective temperature regions. In Table I, we summarize the crossover temperatures Tβ and Tα between regions (i)-(ii) and (ii)-(iii), respectively, together with the respective gradients B1,2,3 obtained separately for each region, (i), (ii) and (iii). For all samples, Tα corresponds to Tg, the temperature above which the temperature-dependent part of ∈″(v) becomes dominated by the primary dielectric relaxation.

[2] = Glass-transition temperature, Tg; format: physicochemical
[3] = known from earlier investigations; cited from earlier work
[4] = Terahertz absorption coefficient of amorphous paracetamol and indomethacin at 1 THz versus T/Tg; format: physicochemical; conditions: transmission
Text: FIG. 3 plots the results of the characterisation of these materials. FIG. 3 plots the absorption coefficient for terahertz radiation (α/cm^−1) measured in transmission through the material at 1 THz, against temperature (plotted as T/Tg) for each material. As set out in the Summary of the Invention, the rate of change of the loss of EM radiation with temperature (the gradient of the graph in FIG. 3) may then be assessed, or measured, and as appropriate compared with a predetermined value in order to achieve a quantitative, or relative, characterisation of the stability of the amorphous material as described below. In FIG. 3, the plotted results for indomethacin show two distinct linear regions, firstly a small and constant rate of change, or gradient, for the absorption of the radiation below Tg, and secondly a marked change to a higher rate of change, or gradient, above Tg. By contrast the plotted results for paracetamol show three different linear regions, namely a low rate of change below a transition temperature of about 0.6 Tg, a higher rate of change between 0.6 Tg and Tg, and a still higher rate of change above Tg.

[5] = cited from earlier work; for stability of the glass (amorphous phase): known from direct measurements of crystallisation during storage; for resistance to crystallisation of the amorphous material below Tg: stored below Tg
[6] = trehalose/glycerol mixtures by glycerol weight concentration, Table 3

SMILES | B3, linear coefficient of ε″(T/Tg)=A+BT/Tg in region (iii) [1] | B1, linear coefficient of ε″(T/Tg)=A+BT/Tg in region (i) [1] | B2, linear coefficient of ε″(T/Tg)=A+BT/Tg in region (ii) [1] | Tα, crossover point of linear fits from region (ii) to region (iii) [1] [K] | Tβ, crossover point of linear fits from region (i) to region (ii) [1] [K] | Tβ/Tg [1] | temperature above which the sample recrystallised ([1]; during heating in the THz-TDS run) | Tg ([2]; polyalcohols, Table 1) [°C] | stability of the amorphous material indicated by gradient in region (ii) and changes in gradient ([1]; FIG. 5) | thermal change in absorption of terahertz radiation between 0.6 Tg-1.0 Tg [4] | Tg [2, 6] [°C] | fragility index, m [3] | stability of the glass (amorphous phase) [5] | resistance to crystallisation of the amorphous material below Tg [5]
OC[C@@H](O)[C@@H](O)[C@H](O)[C@@H](O)CO [sorbitol] | 1.92(5) | 0.02(2) | 0.34(2) | 265 | 150 | 0.56 |  | -4.8 | relatively poor stability |  |  | 128 |  | 
COc1ccc2c(c1)c(CC(=O)O)c(C)n2C(=O)c1ccc(Cl)cc1 [indomethacin] |  |  |  |  |  |  |  |  |  | very low |  |  | very good stability | much more stable
OC[C@H]1O[C@H](O[C@H]2O[C@H](CO)[C@@H](O)[C@H](O)[C@H]2O)[C@H](O)[C@@H](O)[C@@H]1O [0%, trehalose] |  |  |  |  |  |  |  |  |  |  | 115 |  |  | 
CC(=O)Nc1ccc(O)cc1 [paracetamol] |  |  |  |  |  |  |  |  |  | well developed |  |  | poor stability | crystallises rather readily

Now from value to compound, other results behind:

B3, linear coefficient of ε″(T/Tg)=A+BT/Tg in region (iii) [1] | B1, linear coefficient of ε″(T/Tg)=A+BT/Tg in region (i) [1] | B2, linear coefficient of ε″(T/Tg)=A+BT/Tg in region (ii) [1] | Tα, crossover point of linear fits from region (ii) to region (iii) [1] [K] | Tβ, crossover point of linear fits from region (i) to region (ii) [1] [K] | Tβ/Tg [1] | temperature above which the sample recrystallised ([1]; during heating in the THz-TDS run) | Tg ([2]; polyalcohols, Table 1) [°C] | stability of the amorphous material indicated by gradient in region (ii) and changes in gradient ([1]; FIG. 5) | thermal change in absorption of terahertz radiation between 0.6 Tg-1.0 Tg [4] | Tg [2, 6] [°C] | SMILES | fragility index, m [3] | stability of the glass (amorphous phase) [5] | resistance to crystallisation of the amorphous material below Tg [5]
0.43(15) | 0.07(1) | 0.09(1) | 228 | 147 | 0.65 | above 250 K | -46.8 |  |  |  | OC[C@@H](O)[C@H](O)CO [threitol] | 79 |  | 
0.82(4) | 0.06(1) | 0.13(3) | 248 | 167 | 0.68 |  | -25.3 |  |  |  | OC[C@@H](O)[C@H](O)[C@@H](O)CO [xylitol] | 94 |  | 
0.64(1) | 0.03(1) |  | 189 |  |  |  | -81.4 |  |  | -83 | OCC(O)CO [glycerol] | 57 |  | 
